{"source": "patent US20050142195A1", "about": "“Stable pharmaceutical compositions without a stabilizer” (priority 2002, published 2005)", "origin": "cited, not measured here", "note": "Like-named read-outs stand apart in the source and are kept apart here."}
{"molecule": "CC(NC(C)(C)C)C(=O)c1cccc(Cl)c1.Cl", "note": "(racemic) [bupropion, (±)-1-(3-chlorophenyl)-2-[(1,1-dimethylethyl)amino]-1-propanone hydrochloride]", "values": [{"measurement": "stability in mixture with lubricant", "setting": "in the presence of magnesium stearate or stearic acid", "value": "poor"}, {"measurement": "stability in mixture with lubricant", "setting": "in the presence of talc", "value": "stable"}]}
